Results taken from publication PMC10025185, “A continuous in silico learning strategy to identify safety liabilities in compounds used in the leather and textile industry” (Archives of Toxicology, 2023).
Read-outs that look alike come from different tables or passages of the source.

How the values were obtained:
[1] = system: zebrafish embryos
Text: In REACH, most of the mammalian tests for chemical safety assessment are related to reproductive toxicity (ECHA [2020]; Rovida and Hartung [2009]; Sellick [2011]) and consider complex molecular and cellular mechanisms determined in long-term experiments with very low throughput. To avoid the use of animals and to assay reproductive toxicity in a relevant 'non-animal' model adhering to the 3Rs rule, we used zebrafish embryos up to 120 hpf. Up to this developmental stage, the embryos are not considered animals according to European legislation (Sellick [2011]). When they reach the stage of independent feeding, zebrafish embryos become subject to regulations for animal experimentation. We performed a set of previously described experiments to cover a wide range of potential reprotoxic effects, including terato-carcinogenesis, developmental neurotoxicity, and endocrine disruption.
Zebrafish embryos obtained and maintained as described previously for toxicity determination were used to determine (I) terato-carcinogenesis assayed as previously informed (Selderslaghs et al. [2009], [2012]) with modifications. In brief, embryos were incubated for 0 hpf up to 120 hpf in the presence and absence of tested compounds. Each condition was assayed in triplicate with 12 embryos per condition per replicate. The appearance of selected characteristics and malformations with respect to normal development were quantified for the eyes, otoliths, heart, circulation, hatching, skeletal deformities, and body position. For each concentration tested, we assessed the mortality and the presence of malformations at 24, 48, 72, 96, and 120 hpf using a light microscope. When possible, the lethal effects (LC50) and terato-carcinogenic effects (EC50) were determined using the ToxRat software. Based on these values, a teratogenic index (TI) was calculated as LC50/EC50. Based on previous studies, we considered a compound to be a teratogen when TI > 2 at 120 hpf. When no TI could be calculated due to no malformations induction to a degree extensive enough to calculate the EC50 in the presence of high toxicity, the compound was considered a non-teratogen. (II) Neurotoxicity was assayed by evaluating the locomotor activity in embryos exposed to the tested compounds from 0 to 120 hpf using Zebrabox and Zebralab (ViewPoint). We tested three concentrations (24 embryos per concentration) below the NOEC to avoid readily toxic concentrations. After incubation with tested compounds for 120 hs in 96-well plates, the activity of larvae in response to transitions from dark to light was evaluated. The protocol involved an initial 10 min acclimation period inside the Zebrabox, followed by three cycles of light–dark of 10 min each. After the end of each cycle, the integrated activity of each embryo was registered. Statistical analysis was done using ANOVA, followed by the Tukey post hoc test. Differences were considered significant when p < 0.05. Dead embryos were not considered in the analysis. (III) The endocrine-disrupting effect in zebrafish embryos was assayed by real-time PCR as previously reported (Jarque et al. [2019]) with modifications. In brief, 0 hpf embryos (12 embryos per condition in triplicate) were incubated with selected compounds for up to 120 hpf. After incubation, treated (embryos incubated at the concentration right below the NOEC) and control embryos were collected in RNA later and kept at − 20°C until use. RNA was extracted from the samples using the RNeasy Mini Kit (QIAGEN) and was followed by cDNA synthesis using random primers and the AffinityScript Multi Temperature cDNA Synthesis Kit (Agilent Technologies).

[2] = system: CHO-K1 (Chinese hamster ovary cells); assay type: cell-based; conditions: 6 h with or without S9, 24 h without S9
Experimental: The in vitro micronucleus test is a genotoxicity test for the detection of micronuclei in the cytoplasm of interphase cells. Tests were conducted in the presence of the cytokinesis blocker cytochalasin B with three different treatment schedules: (i) short treatment for 6 h; (ii) short treatment for 6 h in the presence of an exogenous source of metabolic activation (cofactor supplemented S9 liver fraction); and (iii) extended treatment for 24 h.
CHO-K1 (Chinese hamster ovary cells, ATCC Item Number CCL-61) were cultured in DMEM F-12 containing 10% foetal bovine serum and 100 units/ml penicillin/100 μg/ml streptomycin (all from Sigma-Aldrich, St Louis, USA). Cells were seeded at 3000 cells/well in a collagen-coated 96-well plate in 100 μl. After 24 h, cells were incubated with CellTracker Orange CMTMR cellular dye solution (Invitrogen, Waltham, USA) for 1 h. Cells were then treated with compounds for 6 h, with or without S9 metabolic activation, or 24 h without S9 metabolic activation. […] After the 6-h compound treatment, cells were incubated with cytochalasin B (Alfa Aesar, Kandel, Germany) for 24 h. In case of 24-h treatment, cells were incubated with compounds in the presence of cytochalasin B and harvested after treatment. Benzo(a)pyrene, mitomycin C, and colchicine were used as positive controls for 6 h, with or without metabolic activation or 24 h treatments, respectively. […] After several washes with BupH-modified DPBS, cells were analysed in an Operetta High-Content Imaging System (PerkinElmer, Waltham, USA). […] Statistical significance was determined with the ANOVA test with significance level adjusted to p < 0.05.

[3] = system: Bhas 42 cell line; assay: Bhas 42 cell transformation assay (carcinogenesis); assay type: cell-based
Experimental: This assay was carried out by adapting the in vitro Bhas 42 cell transformation assay method described in the OECD Guidance Document No. 231 ([2017]) based on the work of Sasaki et al. ([2014]).
It consists of two assays with a different test compound addition schedule to identify compounds with initiating activity (tumour initiators) or promoting activity (tumour promoters). Previously, a cell growth assay for 7 days is performed to set the assay doses of the CTA and another cell growth assay is concurrently performed to the CTA to verify that the selected doses meet the acceptance criteria for the tests.
The carcinogenesis potential of the compound was assayed by means of measuring the frequency of transformed foci (morphologically altered cells that form discrete anchorage-independent colonies) in the Bhas 42 cell line, which can be extrapolated to an assessment of carcinogenic potential. In the transformation assay, the incubation of compounds with two different treatment schedules allowed to identify the initiating or promoting carcinogenic potential of the compounds.

[4] = 0 to 120 hpf, teratogen when TI > 2
[5] = significant increase in foci frequency in at least two sequential concentrations

Q: With CCCCC(CC)CN (stereo not drawn) [2-Ethylhexylamine] as the molecule, how does the “Reprotoxicity (R) Teratogen” value ([1]; in vivo) read?
A: No

Q: And the “Micronucleus assay (M)” value [2]?
A: Negative

Q: What about the “Carcinogen (C)” value [3] of the same molecule?
A: Yes

Q: How did the “Reprotoxicity (R) Experimental conclusion” value ([1]; in vivo) turn out when CNC(=O)c1cc(Cl)ccn1.Cl [4-Chloro-N-methylpyridine-2-carboxamide hydrochloride (1:1)] was run?
A: No

Q: What about the “Reprotoxicity (R) Teratogen” value ([1]; in vivo) of the same molecule?
A: No

Q: What about the “Micronucleus assay (M)” value [2] of the same molecule?
A: Negative

Q: What about the “Carcinogen (C)” value [3] of the same molecule?
A: No

Q: CCN(CC)c1ccc(N=Nc2c(Cl)cc([N+](=O)[O-])cc2[N+](=O)[O-])c(NC(C)=O)c1 [N-[2-[(2-chloro-4,6-dinitrophenyl)azo]-5-(diethylamino)phenyl]acetamide] was tested. Which “Reprotoxicity (R) Teratogen” value [1, 4] did it give?
A: No

Q: And the “Micronucleus assay (M)” value [2]?
A: Negative

Q: What about the “Carcinogen (C)” value [3, 5] of the same molecule?
A: Yes

Q: O=C(OCCc1ccccc1)c1ccccc1 [Phenethyl benzoate] was tested. Which “Reprotoxicity (R) Experimental conclusion” value ([1]; in vivo) did it give?
A: No

Q: What about the “Reprotoxicity (R) Teratogen” value ([1]; in vivo) of the same molecule?
A: No

Q: What about the “Micronucleus assay (M)” value [2] of the same molecule?
A: Negative

Q: And the “Carcinogen (C)” value [3]?
A: No

Q: Which results are given for “Reaction mass of cis-4-(isopropyl) cyclohexanemethanol and trans-4-(isopropyl) cyclohexanemethanol”?
A: Reprotoxicity (R) Teratogen [1, 4]: No; Reprotoxicity (R) Experimental conclusion ([1]; positive in any of the three assays): No; Micronucleus assay (M) [2]: Negative; Carcinogen (C) [3, 5]: Yes
